For orientation: melting point means the temperature of the solid-liquid transition.

On to `Cc1cccc2c1N(CCN(C(C)C)C(C)C)C(=O)/C2=N/NC(N)=O`, for which the melting point is 194 to 195 °C.
With `COc1cc(I)ccc1C(=O)O` the figure was 144 to 146 °C; with `CCCn1c(=O)c2[nH]c([C@@H]3CC[C@H]4CCC[C@H]43)nc2n(CCC)c1=S` (relative stereo), 135 to 137 °C; with `O=c1[nH]c(N[N+](=O)[O-])ncc1Cc1ccco1`, 183 to 184 °C.
With `CC(C)=CCn1c(=O)c(C2=Nc3ccccc3S(=O)(=O)N2)c(O)c2ccccc21` the figure was 249 to 251 °C; with `Oc1ccc(CN[C@H]2CC[C@@H](C(c3ccccc3)c3ccccc3)OC2)cc1` (relative stereo), 136 to 138 °C.
With `O=CN1CCC(c2nn(-c3ccc(C(F)(F)F)cc3)c3cc(F)ccc23)CC1` the figure was 142 to 144 °C.
In turn, `Cc1cc(C(C)C(=O)O)ccc1C(=O)c1cccs1` (stereo unspecified) displayed a melting point of 100 °C.
The result for `CC(C)(C)C(Cl)=NNc1ccc(Cl)cc1` reads 42 to 43 °C; that for `NCCNc1ncc2ncnc(Nc3ccc(F)c(Cl)c3)c2n1`, 173 to 175 °C.
With `FCc1cc(Cl)n2nc(SCc3ccccc3)nc2n1` the figure was 81 to 86 °C.
Turning to `CCOc1cccc(C(O)c2ncccc2OC)c1` (stereo unspecified), the melting point is 104 to 106 °C.
The result for `CCOC(=O)c1[nH]cc2c1NC1=C(C(=O)CCC1)C2c1ccc(Sc2nc3ccc(F)c(F)c3[nH]2)o1` (stereo unspecified) reads 144 to 148 °C; that for `O=[N+]([O-])c1cn(-c2cccnc2)nc1Cl`, 139 to 142 °C; that for `Cc1cccc(NCC2=NCCN2C(=O)Nc2ccc(Cl)cc2)c1C`, 153 to 155 °C.
With `COc1cc(C2CCCCC2)ccc1C(=O)CCC(=O)O` the figure was 130 to 131 °C.
`O[C@@H](CNCCOc1ccc2oc(-c3ccon3)cc2c1)c1cccc(C(F)(F)F)c1` displayed a melting point of 113 to 114 °C.
Take `CC1=NC(NC(=O)Nc2cccc(C)c2)C(=O)N(CC(=O)c2ccccc2C)c2c(C)cccc21` (stereo unspecified): the melting point lay in the range of 128 to 136 °C.
Turning to `CCOC(=O)C(CSC12CC3CC(CC(C3)C1)C2)NC(C)C(=O)O` (stereo unspecified), the melting point was in the range of 68 to 72 °C.
With `CCOC(=O)C(NC=O)=C(c1ccc(F)cc1)c1ccc(F)cc1` the figure was 174 to 176 °C.
With `CC(C)=C[C@@H](OC(=O)C=C(C)N[C@@H](C)c1cccc2ccccc12)C(Cl)(Cl)Cl` the figure was 209 to 210 °C.
On to `CC(=O)Nc1cc(Cl)c(Br)c(Cl)c1`, for which the melting point stood at 224 °C.
The result for `CSc1ccc(-c2n[nH]c(C(F)(F)F)c2-c2ccc(F)cc2)cc1` reads 189 to 190 °C; that for `Cc1ccccc1-c1ccc(Cl)cc1C(=O)O`, 135 to 137 °C.
With `CCCCC(=O)c1c(CSc2nccn2C)nc2cc(OC)c(OC)cc2c1-c1ccc(OC)c(OC)c1` the figure was 125 to 127 °C.
The result for `CCCCc1ccc(S(=O)(=O)CC(O)(CS(=O)(=O)c2ccc(OC)cc2)C(=O)NO)cc1` (stereo unspecified) reads 63 to 68 °C; that for `O=C(OCC1CC1)c1ccc(OCCC2CCN(c3ccc(Cl)nn3)CC2)cc1`, 134 °C; that for `COc1ccc(C2CC(=O)N(c3c(C)c(C)c4c(c3C)[C@@H](c3ccc(C)cc3)C(C)(C)O4)C(=O)C2)cc1`, 207 to 209 °C.
`Nc1ccccc1NS(=O)(=O)c1ccc([N+](=O)[O-])cc1` registered a melting point of 190 to 191 °C.
With `Cc1cccc(-c2[nH]c(C(C)C)nc2-c2cccc(-c3cccc(F)c3)c2)n1` the figure was 140 to 142 °C; with `COC(=O)/C=C/c1ccc(OC)cc1N`, 149 °C; with `Cc1c(CC(=O)OC(OC(=O)Cc2cc(C(C)(C)C)c(O)c(C)c2C)(OC(=O)Cc2cc(C(C)(C)C)c(O)c(C)c2C)C(C)(C)C)cc(C(C)(C)C)c(O)c1C`, 159 °C.
The result for `NC(C(=O)O)c1ccc(C(=O)O)cc1-c1ccccc1` (stereo unspecified) reads 238 to 240 °C; that for `CNC(=C[N+](=O)[O-])NCCCSc1nc(C)co1`, 92 to 93 °C.
With `CCC(=O)OCc1cc2c3ccccc3[nH]c(=O)n2n1` the figure was 184 to 186 °C; with `O=C(O)c1cc(-c2ccncn2)c[nH]c1=O`, more than 250 °C; with `CNC(=O)Nc1ccc(O)cc1`, 169 to 171 °C.
With `Cc1sc(-c2ccccc2)nc1COc1ccc(COc2ncccc2CC(=O)O)cc1`, the melting point lay in the range of 128 to 129 °C.
The result for `N#Cc1ccsc1-c1[nH]c(=O)c(-c2ccccc2)cc1C(=O)O` reads 255 to 257 °C; that for `CCNC(=O)n1nc(Oc2ncc(C(F)(F)F)cc2Cl)c(C)c1C`, 124 to 125 °C.
The result for `COc1cc(C)nc(NC(=O)NS(=O)(=O)c2cccc3c2S(=O)(=O)C(C)C3)n1` (stereo unspecified) reads 224 to 226 °C; that for `O=C(O)CCc1cn(Cc2ccc(OCc3ccc4ccccc4n3)cc2)nc1-c1ccc(F)cc1`, 178 to 179 °C.
With `Cc1cc(=O)c(-c2ccc(F)cc2)c(C)o1` the figure was 114 to 115 °C; with `CN(C)C1(c2ccccc2)CCC2(OCCc3c2[nH]c2ccccc32)C(F)C1` (stereo unspecified), 245 to 247 °C.
Turning to `CCC(=O)OCC1OC(n2cc(F)c(=O)n(C(=O)c3cccc(OC)c3OC)c2=O)CC1OC(=O)CC` (stereo unspecified), the melting point was 84.5 to 86 °C.
With `CN1CCN(c2ccccc2C=C2CCN(c3ccc(C(F)(F)F)cc3)C2=O)CC1` the figure was 186 to 189 °C.
In turn, `Cc1oc(-c2ccccc2)nc1CN(C)C(=O)c1ccc(C=C2SC(=O)NC2=O)cc1` returned a melting point of 95 to 98 °C.
The result for `O=c1c(C2CC2)c(N2CCC(c3ccccc3)CC2)ccn1CC1CC1` reads 202 °C.
With `CCc1nc(C(C)(C)O)c(C(=O)OCc2oc(=O)oc2C)n1Cc1ccc(-c2ccccc2-c2nnnn2C(c2ccccc2)(c2ccccc2)c2ccccc2)cc1` the figure was 145 °C; with `O=C(c1ccc(Cl)c([N+](=O)[O-])c1)c1ccc(Cl)c([N+](=O)[O-])c1`, 131 to 132 °C.
Turning to `Cc1[nH]c2ccc(/C=C/C(=O)OCc3ccccc3)cc2c1Cn1ccnc1`, the melting point was in the range of 120 to 122 °C.
With `O=C(O)C=Cc1ccc(CCNC(=O)c2ccc(Cl)cc2)cc1` the figure was 253 to 255 °C.
With `Cc1cccc(C)c1NC(C)C(=O)O` (stereo unspecified) the figure was 178 to 180 °C; with `CNCc1cccc2c1ccn2S(=O)(=O)c1ccccc1`, 75 to 77 °C.
With `ON=c1cc(-c2cc3cccn3cn2)oc2ccc(OCCc3cccc(C(F)(F)F)c3)cc12` the figure was 217 to 218 °C.
`COC(=O)c1csc(NC(=O)[C@H](CC2CCCC2)c2ccc(Cl)c(Cl)c2)n1`: the melting point lay in the range of 143 to 144 °C.
The result for `O=c1[nH]c2cc(Cl)cc(Cl)c2c(=O)n1Cc1cccc(Cl)c1` reads 276 to 279 °C; that for `CC12C=CC(=O)C=C1CCC1C2CCC2(C)C(=O)CCC12` (stereo unspecified), 138 to 139 °C.
With `COc1cc(F)ccc1Nc1ccc2c(c1)OCc1cc([N+](=O)[O-])ccc1C2=O` the figure was 222 °C.
`CCCCCCCCCCCCCCCC(=O)OCC(CO)OC(=O)CCCCCCCCCCCCCCC` (stereo unspecified) returned a melting point of 67 to 68 °C.
With `C=C(OC(=O)c1ccc(C(C)(C)C)cc1)c1ccc(OC)cc1` the figure was 87 to 89 °C.

The values are drawn from a melting point compilation (Tetko et al.; mined from patent text by program, amines drawn as free bases though some values may be those of a salt).
